Measurements as given in patent publication US12448377B2, “Heterocyclic compound” (Takeda Pharmaceutical Company Limited, priority 2019, dated 2025).

The compounds below were run on cynomolgus monkeys (assay: Evaluation of wake-promoting effects in cynomolgus monkeys (EEG/EMG/EOG)). Settings: s.c., 0.3 mg/kg, at ZT12, 4 h after administration.
Format: in vivo, cynomolgus monkey
Experimental: The wake-promoting effects were evaluated by measuring the electroencephalogram (EEG), electromyogram (EMG) and electrooculogram (EOG) in cynomolgus monkeys. Under isoflurane anesthesia (1-5%, Pfizer Japan Inc., Tokyo, Japan), male cynomolgus monkeys (2-3 years old, Hamri Co., Ltd., Ibaraki, Japan) were surgically implanted with radio-telemetry transmitters (TL10M3-D70-EEE, Data Sciences International Inc., MN, USA). EEG leads were stereotaxically positioned at the parietal area and secured to the cranium with stainless-steel screws in contact with the dura. […] Bilateral EMG leads were implanted into the back cervical muscles. After the surgery, each monkey was given penicillin (100,000 units/head, i.m., Meiji Seika Pharma Co., Ltd., Tokyo, Japan), buprenorphine (0.02 mg/kg, i.m., Otsuka Pharmaceutical Co., Ltd., Tokyo, Japan) and prednisolone (1 mg/kg, s.c., Kyoritsu Seiyaku Co., Ltd., Tokyo, Japan) daily for one week. After at least a 1-month recovery period in home cages, the monkeys were habituated to the recording chamber (an acrylic cage 60W×55D×75H (cm)) located in a soundproof, electrically shielded room. After confirming that the monkeys slept sufficiently in the experimental room, the cortical EEG, EMG and EOG signals were recorded using Dataquest ART software (Data Sciences International Inc., MN, USA). The signals were semi automatically scored in 20 sec epochs by a sleep scoring system (SleepSign, Kissei Comtec Co., Ltd., Nagano, Japan). This preliminary scoring was visually inspected and corrected if necessary. Test compound (0.1, 0.3, 1 or 10 mg/kg, Table 4) dissolved in a mixed solution containing 5% DMSO, 5% Cremophor EL, 20% PEG400 and 70% soluplus (1% (w/v)), or vehicle (i.e., a mixed solution containing 5% DMSO, 5% Cremophor EL, 20% PEG400 and 70% soluplus (1% (w/v))) was administered subcutaneously (s.c.) to the cynomolgus monkeys at ZT12 in a volume of 0.5 mL/kg in a pre-post design. The EEG, EMG and EOG recordings were performed for 4 h after the compound administration. The time spent in wakefulness for 4 h after administration (% of vehicle treatment) was calculated by using SleepSign.

SMILES	Wakefulness time (% of vehicle treatment) (Mean, n = 2)
Cc1ccc2n(c1=O)C(COC1CCC(c3ccccc3)CC1)C(NS(C)(=O)=O)CC2 [Example 6, rel-N-[(3S,4R)-7-methyl-6-oxo-4-({[(1s,4S)-4-phenylcyclohexyl]oxy}methyl)-1,3,4,6-tetrahydro-2H-quinolizin-3-yl]methanesulfonamide]	352.87 % of vehicle treatment

Each compound was assayed against T1, human orexin type 2 receptor (Homo sapiens, UniProt O43614) (assay: Measurement of orexin type 2 receptor agonist activity (calcium fluorescence, CHO cells forcibly expressing human OX2 receptor)). Settings: compound at 3 μM, DMSO = 0%, orexin A (human) 10 nM = 100%.
T1 construct: expressed in transfected cells
T1 sequence (O43614 1-444): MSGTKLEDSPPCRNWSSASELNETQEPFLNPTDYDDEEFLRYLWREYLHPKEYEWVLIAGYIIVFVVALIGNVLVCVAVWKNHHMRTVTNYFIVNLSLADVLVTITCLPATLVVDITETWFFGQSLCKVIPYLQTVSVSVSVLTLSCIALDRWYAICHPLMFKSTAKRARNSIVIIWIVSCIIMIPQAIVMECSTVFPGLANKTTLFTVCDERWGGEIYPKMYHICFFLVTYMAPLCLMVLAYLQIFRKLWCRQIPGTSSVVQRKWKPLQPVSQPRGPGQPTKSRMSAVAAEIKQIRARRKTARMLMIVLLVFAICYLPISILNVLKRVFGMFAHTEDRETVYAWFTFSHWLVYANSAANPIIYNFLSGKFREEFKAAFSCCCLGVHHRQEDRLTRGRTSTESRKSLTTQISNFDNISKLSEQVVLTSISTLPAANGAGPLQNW
Format: cell-based
Method in brief: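 Agonism measured as Fluo-4 calcium fluorescence in CHO-K1 cells stably expressing human OX2 receptor, loaded 30 min at 37° C then 30 min at room temperature with probenecid. Signal recorded about 2 min 40 sec after compound; activity (%) normalised to DMSO (0%) and 10 nM human orexin A (100%).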

SMILES	OX2R agonist activity (3 μM, %) [%]
Cc1ccc2n(c1=O)C(COC1CCC(C3CC3C)CC1)C(NS(C)(=O)=O)CC2 (racemic) [Example 97, N-{7-methyl-4-[({(1S,4S)-4-[(1RS,2SR)-2-methylcyclopropyl]cyclohexyl)oxy)methyl]-6-oxo-1,3,4,6-tetrahydro-2H-quinolizin-3-yl]methanesulfonamide]	94
C=CC1CCC(OCC2C(NS(C)(=O)=O)CCc3ccc(C)c(=O)n32)CC1 (racemic) [Example 99, rac-N-[(3S,4R)-4-({[(1s,4S)-4-ethenylcyclohexyl]oxy}methyl)-7-methyl-6-oxo-1,3,4,6-tetrahydro-2H-quinolizin-3-yl]methanesulfonamide]	91
C#CC1CCC(OCC2C(NS(C)(=O)=O)CCc3ccc(C)c(=O)n32)CC1 (racemic) [Example 108, rac-N-[(3S,4R)-4-({[(1s,4S)-4-ethynylcyclohexyl]oxy}methyl)-7-methyl-6-oxo-1,3,4,6-tetrahydro-2H-quinolizin-3-yl]methanesulfonamide]	101
CC#CC1CCC(OCC2C(NS(C)(=O)=O)CCc3ccc(C)c(=O)n32)CC1 (racemic) [Example 109, rac-N-[(3S,4R)-7-methyl-6-oxo-4-({[(1s,4S)-4-(prop-1-yn-1-yl)cyclohexyl]oxy}methyl)-1,3,4,6-tetrahydro-2H-quinolizin-3-yl]methanesulfonamide]	96
C/C=C\C1CCC(OCC2C(NS(C)(=O)=O)CCc3ccc(C)c(=O)n32)CC1 (racemic) [Example 110, rac-N-{(3S,4R)-7-methyl-6-oxo-4-[({(1s,4S)-4-[(1Z)-prop-1-en-1-yl]cyclohexyl}oxy)methyl]-1,3,4,6-tetrahydro-2H-quinolizin-3-yl}methanesulfonamide]	91
Cc1ccc2n(c1=O)C(COC1CCC(c3ccccn3)CC1)C(NS(C)(=O)=O)CC2 (racemic) [Example 116, rac-N-[(3S,4R)-7-methyl-6-oxo-4-({[(1s,4S)-4-(pyridin-2-yl)cyclohexyl]oxy)methyl)-1,3,4,6-tetrahydro-2H-quinolizin-3-yl]methanesulfonamide]	99
Cc1ccc2n(c1=O)C(COC1CCC(C)CC1)C(NS(C)(=O)=O)CC2 [Example 1, rel-N-[(3S,4R)-7-methyl-4-({[(1s,4S)-4-methylcyclohexyl]oxy}methyl)-6-oxo-1,3,4,6-tetrahydro-2H-quinolizin-3-yl]methanesulfonamide]	96
Cc1ccc2n(c1=O)C(COC1CCC(C)CC1)C(NS(C)(=O)=O)CC2 [Example 5, rel-N-[(3S,4R)-7-methyl-4-({[(1r,4R)-4-methylcyclohexyl]oxy}methyl)-6-oxo-1,3,4,6-tetrahydro-2H-quinolizin-3-yl]methanesulfonamide]	112
Cc1ccc2n(c1=O)C(COC1CCC(c3ccccc3)CC1)C(NS(C)(=O)=O)CC2 [Example 6, rel-N-[(3S,4R)-7-methyl-6-oxo-4-({[(1s,4S)-4-phenylcyclohexyl]oxy}methyl)-1,3,4,6-tetrahydro-2H-quinolizin-3-yl]methanesulfonamide]	92
CCC1CCC(OCC2C(NS(C)(=O)=O)CCc3ccc(C4CC4)c(=O)n32)CC1 [Example 66, rel-N-[(3S,4R)-7-cyclopropyl-4-({[(1s,4S)-4-ethylcyclohexyl]oxy}methyl)-6-oxo-1,3,4,6-tetrahydro-2H-quinolizin-3-yl]methanesulfonamide]	96
CCc1ccc2n(c1=O)C(COC1CCC(C)CC1)C(NS(=O)(=O)CC)CC2 [Example 71, rel-N-[(3S,4R)-7-ethyl-4-(([(1s,4S)-4-methylcyclohexyl]oxy}methyl)-6-oxo-1,3,4,6-tetrahydro-2H-quinolizin-3-yl)ethanesulfonamide]	99
Cc1ccc2n(c1=O)C(COC1CCC(c3ccccc3C(F)(F)F)CC1)C(NS(C)(=O)=O)CC2 [Example 72, rel-N-{(3S,4R)-7-methyl-6-oxo-4-[({(1s,4S)-4-[2-(trifluoromethyl)phenyl]cyclohexyl}oxy)methyl]-1,3,4,6-tetrahydro-2H-quinolizin-3-yl]methanesulfonamide]	108
Cc1ccc2n(c1=O)C(COC1CCC(c3c(F)cccc3F)CC1)C(NS(C)(=O)=O)CC2 [Example 89, rel-N-[(3S,4R)-4-({[(1s,4S)-4-(2,6-difluorophenyl)cyclohexyl]oxy)methyl)-7-methyl-6-oxo-1,3,4,6-tetrahydro-2H-quinolizin-3-yl]methanesulfonamide]	89
COc1ccccc1C1CCC(OCC2C(NS(C)(=O)=O)CCc3ccc(C)c(=O)n32)CC1 [Example 90, rel-N-[(3S,4R)-4-({[(1s,4S)-4-(2-methoxyphenyl)cyclohexyl]oxy}methyl)-7-methyl-6-oxo-1,3,4,6-tetrahydro-2H-quinolizin-3-yl]methanesulfonamide]	87
CC1CCC(OCC2C(NS(C)(=O)=O)CCc3ccc(C4CC4)c(=O)n32)CC1 [Example 105, rel-N-[(3S,4R)-7-cyclopropyl-4-({[(1s,4S)-4-methylcyclohexyl]oxy)methyl)-6-oxo-1,3,4,6-tetrahydro-2H-quinolizin-3-yl]methanesulfonamide]	84
CCC1CCC(OCC2C(NS(C)(=O)=O)CCc3c(Br)cc(C)c(=O)n32)CC1 [Example 106, rel-N-[(3S,4R)-9-bromo-4-({[(1s,4S)-4-ethylcyclohexyl]oxy}methyl)-7-methyl-6-oxo-1,3,4,6-tetrahydro-2H-quinolizin-3-yl]methanesulfonamide]	91
CCCOC1CCC(OCC2C(NS(C)(=O)=O)CCc3ccc(C)c(=O)n32)CC1 [Example 107, rel-N-[(3S,4R)-7-methyl-6-oxo-4-({[(1s,4S)-4-propoxycyclohexyl]oxy}methyl)-1,3,4,6-tetrahydro-2H-quinolizin-3-yl]methanesulfonamide]	65
Cc1ccc2n(c1=O)C(COC1CCC(OCC3CC3)CC1)C(NS(C)(=O)=O)CC2 [Example 114, rel-N-[(3S,4R)-4-(([(1s,4S)-4-(cyclopropylmethoxy)cyclohexyl]oxy}methyl)-7-methyl-6-oxo-1,3,4,6-tetrahydro-2H-quinolizin-3-yl]methanesulfonamide]	69
CCC1CCC(OCC2C(NS(C)(=O)=O)CCc3c(C4CC4)cc(C)c(=O)n32)CC1 [Example 115, rel-N-[(3S,4R)-9-cyclopropyl-4-({[(1s,4S)-4-ethylcyclohexyl]oxy)methyl)-7-methyl-6-oxo-1,3,4,6-tetrahydro-2H-quinolizin-3-yl]methanesulfonamide]	100
CC#CC1CCC(OCC2C(NS(=O)(=O)N(C)C)CCc3ccc(C)c(=O)n32)CC1 [Example 144, rel-N,N-dimethyl-N′-[(3S,4R)-7-methyl-6-oxo-4-({[(1s,4S)-4-(prop-1-yn-1-yl)cyclohexyl]oxy}methyl)-1,3,4,6-tetrahydro-2H-quinolizin-3-yl]sulfuric diamide]	99
CC#CC1CCC(OCC2C(NS(=O)(=O)NC)CCc3ccc(C)c(=O)n32)CC1 [Example 149, rel-N-methyl-N′-[(3S,4R)-7-methyl-6-oxo-4-({[(1s,4S)-4-(prop-1-yn-1-yl)cyclohexyl]oxy}methyl)-1,3,4,6-tetrahydro-2H-quinolizin-3-yl]sulfuric diamide]	95
